Laboratory results taken from patent US10988477B2 (Merck Patent GmbH, priority 2018, dated 2021).
pIC50, pKi: −log10 of the molar value.

Experiments:
[1] = biological target: GCN2 kinase (Homo sapiens, UniProt Q9P2K8); assay: GCN2 enzyme inhibition assay (Transcreener ADP2 fluorescence polarization); type: biochemical; conditions: compounds of Formula II; 280 μM ATP, 4 nM GCN2 kinase
Outline: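 Human GCN2 (4 nM) preincubated 10 min with compound (0–8 μM) and 200 μM (RS)7 peptide in Tris-HCl pH 7.5, NaCl, MgCl2, DTT. Reaction started with 280 μM ATP, run 1 h at 25 °C. ADP detected by Transcreener fluorescence polarization. IC50 and Ki(app) fitted by tight-binding algorithm.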

[2] = biological target: intracellular GCN2 (phosphorylation of the GCN2 substrate eIF2α) (Homo sapiens, UniProt Q9P2K8); assay: GCN2 cellular inhibition assay (AlphaScreen SureFire P-eIF2α Ser51, borrelidin-treated U2OS cells); type: cell-based; conditions: compounds of Formula II; biomarker assay, phosphorylated eIF2α Ser51 in borrelidin-treated U2OS cells
Chain of intracellular GCN2 (phosphorylation of the GCN2 substrate eIF2α) (Q9P2K8 whole entry): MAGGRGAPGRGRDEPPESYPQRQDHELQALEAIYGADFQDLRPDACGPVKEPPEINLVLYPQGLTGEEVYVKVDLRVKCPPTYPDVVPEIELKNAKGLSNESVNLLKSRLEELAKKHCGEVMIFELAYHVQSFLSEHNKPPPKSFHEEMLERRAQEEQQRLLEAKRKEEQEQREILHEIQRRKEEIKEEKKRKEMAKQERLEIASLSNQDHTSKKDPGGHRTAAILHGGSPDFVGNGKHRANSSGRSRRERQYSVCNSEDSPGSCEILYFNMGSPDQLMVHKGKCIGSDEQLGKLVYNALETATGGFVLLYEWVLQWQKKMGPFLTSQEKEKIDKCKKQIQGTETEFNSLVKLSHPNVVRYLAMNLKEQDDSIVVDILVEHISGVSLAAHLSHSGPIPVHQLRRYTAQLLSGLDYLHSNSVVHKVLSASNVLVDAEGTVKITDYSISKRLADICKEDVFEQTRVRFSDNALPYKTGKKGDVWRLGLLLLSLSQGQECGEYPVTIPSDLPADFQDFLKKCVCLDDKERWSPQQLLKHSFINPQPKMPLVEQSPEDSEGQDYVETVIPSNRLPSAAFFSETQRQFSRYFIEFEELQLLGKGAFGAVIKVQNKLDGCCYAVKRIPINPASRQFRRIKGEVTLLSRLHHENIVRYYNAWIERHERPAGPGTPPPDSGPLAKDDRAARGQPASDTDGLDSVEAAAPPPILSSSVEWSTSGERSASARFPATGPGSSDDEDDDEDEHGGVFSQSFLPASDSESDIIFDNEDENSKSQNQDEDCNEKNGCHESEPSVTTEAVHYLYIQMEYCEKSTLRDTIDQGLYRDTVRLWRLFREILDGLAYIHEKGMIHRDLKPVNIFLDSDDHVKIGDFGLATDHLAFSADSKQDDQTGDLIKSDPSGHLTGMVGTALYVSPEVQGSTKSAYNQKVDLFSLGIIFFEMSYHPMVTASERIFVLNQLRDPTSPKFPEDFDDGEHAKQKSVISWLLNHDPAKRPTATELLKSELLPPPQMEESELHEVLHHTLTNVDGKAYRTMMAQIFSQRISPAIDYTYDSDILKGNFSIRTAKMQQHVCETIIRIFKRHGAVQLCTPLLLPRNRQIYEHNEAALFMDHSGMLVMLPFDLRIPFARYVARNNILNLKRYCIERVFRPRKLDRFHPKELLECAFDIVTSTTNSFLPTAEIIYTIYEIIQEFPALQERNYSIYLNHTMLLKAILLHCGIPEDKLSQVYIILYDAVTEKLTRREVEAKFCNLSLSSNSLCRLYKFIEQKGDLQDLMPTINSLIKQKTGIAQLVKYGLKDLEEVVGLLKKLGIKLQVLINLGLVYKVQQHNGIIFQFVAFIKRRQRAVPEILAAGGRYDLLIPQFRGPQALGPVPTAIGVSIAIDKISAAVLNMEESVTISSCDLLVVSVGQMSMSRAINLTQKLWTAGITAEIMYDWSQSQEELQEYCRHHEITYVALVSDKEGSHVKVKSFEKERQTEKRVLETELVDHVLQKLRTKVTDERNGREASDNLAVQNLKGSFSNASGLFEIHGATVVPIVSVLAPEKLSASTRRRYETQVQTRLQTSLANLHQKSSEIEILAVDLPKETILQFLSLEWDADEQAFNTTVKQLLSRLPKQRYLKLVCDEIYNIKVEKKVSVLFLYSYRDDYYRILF
Outline: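 Read-out: AlphaScreen SureFire phospho-eIF2α (Ser51) signal in U2OS lysates. Cells get 4-fold compound dilutions (top 40 μM final) plus 10 μM borrelidin, 1 h, 37 °C. Percent inhibition is relative to borrelidin-alone controls.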

Chain of GCN2 kinase (Q9P2K8 whole entry): as above

Structure (SMILES) | pKi [1] | pIC50 [2]
CC1C(CNS(C)(=O)=O)OCCN1c1cc(-c2cnc3ccc(C(F)F)nn23)ncn1 (stereo not drawn) [II-345, N-((4-(6-(6-(Difluoromethyl)imidazo[1,2-b]pyridazin-3-yl)pyrimidin-4-yl)-3-methylmorpholin-2-yl)methyl)methanesulfonamide] | > 8.00 | > 6.30
CC1C(CNS(C)(=O)=O)OCCN1c1cc(-c2cnc3ccc(C(F)F)nn23)ncn1 (stereo not drawn) [II-346, N-((4-(6-(6-(Difluoromethyl)imidazo[1,2-b]pyridazin-3-yl)pyrimidin-4-yl)-3-methylmorpholin-2-yl)methyl)methanesulfonamide] | 6.00 to 8.00 | < 5.30
NS(=O)(=O)NCC1CN(c2cc(-c3cnc4ccc(C(F)F)nn34)ncn2)CCO1 (stereo not drawn) [II-347, N-((4-(6-(6-(Difluoromethyl)imidazo[1,2-b]pyridazin-3-yl)pyrimidin-4-yl)morpholin-2-yl)methyl)sulfuric diamide] | > 8.00 | > 6.30
CN(C)S(=O)(=O)NCC1CCCN(c2cc(-c3cnc4ccc(C(F)F)nn34)ncn2)C1 (stereo not drawn) [II-348, 3-((1-(6-(6-(Difluoromethyl)imidazo[1,2-b]pyridazin-3-yl)pyrimidin-4-yl)piperidin-3-yl)methyl)-1,1-dimethylsulfuric Diamide] | 6.00 to 8.00 | 5.30 to 6.30
CN(C)S(=O)(=O)NCC1CN(c2cc(-c3cnc4ccc(C(F)F)nn34)ncn2)CCO1 (stereo not drawn) [II-349, 3-((4-(6-(6-(Difluoromethyl)imidazo[1,2-b]pyridazin-3-yl)pyrimidin-4-yl)morpholin-2-yl)methyl)-1,1-dimethyl sulfuric diamide] | 6.00 to 8.00 | 5.30 to 6.30
OC1CCN(CCC2CCN(c3cc(-c4cnc5ccc(C(F)F)nn45)ncn3)CC2)C1 (stereo not drawn) [II-351, 1-(2-(1-(6-(6-(Difluoromethyl)imidazo[1,2-b]pyridazin-3-yl)pyrimidin-4-yl)piperidin-4-yl)ethyl)pyrrolidin-3-ol] | 6.00 to 8.00 | < 5.30
OC1CCN(C2CCN(c3cc(-c4cnc5ccc(C(F)F)nn45)ncn3)C2)C1 (stereo not drawn) [II-352, 1′-(6-(6-(Difluoromethyl)imidazo[1,2-b]pyridazin-3-yl)pyrimidin-4-yl)-[1,3′-bipyrrolidin]-3-ol] | 6.00 to 8.00 | < 5.30
O=C1CN(CC2CCN(c3cc(-c4cnc5ccc(C(F)F)nn45)ncn3)C2)CCN1 (stereo not drawn) [II-353, 4-((1-(6-(6-(Difluoromethyl)imidazo[1,2-b]pyridazin-3-yl)pyrimidin-4-yl)pyrrolidin-3-yl)methyl)piperazin-2-one] | 6.00 to 8.00 | < 5.30
C[C@@H]1CCCCN1c1cc(-c2cnc3ccc(C(F)F)nn23)ncn1 [II-354, (R)-6-(Difluoromethyl)-3-(6-(2-methylpiperidin-1-yl)pyrimidin-4-yl)imidazo[1,2-b]pyridazine] | 6.00 to 8.00 | < 5.30
FC(F)c1ccc2ncc(-c3cc(C4=CCOCC4)ncn3)n2n1 [II-357, 6-(Difluoromethyl)-3-(6-(3,6-dihydro-2H-pyran-4-yl)pyrimidin-4-yl)imidazo[1,2-b]pyridazine] | 6.00 to 8.00 | < 5.30
FC(F)c1ccc2ncc(-c3cc(C4CCOCC4)ncn3)n2n1 [II-358, 6-(Difluoromethyl)-3-(6-tetrahydropyran-4-ylpyrimidin-4-yl)imidazo[1,2-b]pyridazine] | 6.00 to 8.00 | < 5.30
OCC1CN(c2cc(-c3cnc4ccc(C(F)F)nn34)ncn2)CC2(CC2)O1 (stereo not drawn) [II-359, (7-(6-(6-(Difluoromethyl)imidazo[1,2-b]pyridazin-3-yl)pyrimidin-4-yl)-4-oxa-7-azaspiro[2.5]octan-5-yl)methanol] | 6.00 to 8.00 | < 5.30
CS(=O)(=O)NC1CCCN(c2cc(-c3cnc4ccc(C(F)F)nn34)ncn2)C1 (stereo not drawn) [II-362, N-(1-(6-(6-(Difluoromethyl)imidazo[1,2-b]pyridazin-3-yl)pyrimidin-4-yl)piperidin-3-yl)methanesulfonamide] | 6.00 to 8.00 | 5.30 to 6.30
CC1CC(C)(O)C(CNS(C)(=O)=O)CN1c1cc(-c2cnc3ccc(C(F)F)nn23)ncn1 (stereo not drawn) [II-365, N-((1-(6-(6-(Difluoromethyl)imidazo[1,2-b]pyridazin-3-yl)pyrimidin-4-yl)-4-hydroxy-4,6-dimethylpiperidin-3-yl)methyl)methanesulfonamide] | 6.00 to 8.00 | < 5.30
CC1C(CNS(C)(=O)=O)C(C)(O)CCN1c1cc(-c2cnc3ccc(C(F)F)nn23)ncn1 (stereo not drawn) [II-366, N-((1-(6-(6-(Difluoromethyl)imidazo[1,2-b]pyridazin-3-yl)pyrimidin-4-yl)-4-hydroxy-2,4-dimethylpiperidin-3-yl)methyl)methanesulfonamide] | > 8.00 | > 6.30
CC1CC(C)(O)C(CNS(C)(=O)=O)CN1c1cc(-c2cnc3ccc(C(F)F)nn23)ncn1 (stereo not drawn) [II-367, N-((1-(6-(6-(Difluoromethyl)imidazo[1,2-b]pyridazin-3-yl)pyrimidin-4-yl)-4-hydroxy-4,6-dimethylpiperidin-3-yl)methyl)methanesulfonamide] | 6.00 to 8.00 | 5.30 to 6.30
CC(=O)N1CCN(c2cc(-c3cnc4ccc(C(F)F)nn34)ncn2)C(C)C1 (stereo not drawn) [II-368, 1-(4-(6-(6-(Difluoromethyl)imidazo[1,2-b]pyridazin-3-yl)pyrimidin-4-yl)-3-methylpiperazin-1-yl)ethan-1-one] | 6.00 to 8.00 | < 5.30
CS(=O)(=O)N1CCC2C(C1)OCCN2c1cc(-c2cnc3ccc(C(F)F)nn23)ncn1 (stereo not drawn) [II-369, 1-(6-(6-(Difluoromethyl)imidazo[1,2-b]pyridazin-3-yl)pyrimidin-4-yl)-6-(methylsulfonyl)octahydro-1H-pyrido[3,4-b][1,4]oxazine] | 6.00 to 8.00 | < 5.30
CS(=N)(=O)CC1CCCN(c2cc(-c3cnc4ccc(C(F)F)nn34)ncn2)C1 (stereo not drawn) [II-370, ((1-(6-(6-(Difluoromethyl)imidazo[1,2-b]pyridazin-3-yl)pyrimidin-4-yl)piperidin-3-yl)methyl)(imino)(methyl)-λ^6-sulfanone] | 6.00 to 8.00 | 5.30 to 6.30
CC1C(CO)CCCN1c1cc(-c2cnc3ccc(C(F)F)nn23)ncn1 (stereo not drawn) [II-373, (1-(6-(6-(Difluoromethyl)imidazo[1,2-b]pyridazin-3-yl)pyrimidin-4-yl)-2-methylpiperidin-3-yl)methanol] | > 8.00 | 5.30 to 6.30
CS(=O)(=O)NCC1CN(c2cc(-c3cnc4ccc(C(F)F)nn34)ncn2)CC2(CC2)O1 (stereo not drawn) [II-375, N-((7-(6-(6-(Difluoromethyl)imidazo[1,2-b]pyridazin-3-yl)pyrimidin-4-yl)-4-oxa-7-azaspiro[2.5]octan-5-yl)methyl)methanesulfonamide] | > 8.00 | > 6.30
NS(=O)(=O)C1CCCN(c2cc(-c3cnc4ccc(C(F)F)nn34)ncn2)C1 (stereo not drawn) [II-376, 1-(6-(6-(Difluoromethyl)imidazo[1,2-b]pyridazin-3-yl)pyrimidin-4-yl)piperidine-3-sulfonamide] | 6.00 to 8.00 | 5.30 to 6.30
NC(=O)C1CCCN(c2cc(-c3cnc4ccc(C(F)F)nn34)ncn2)C1 (stereo not drawn) [II-378, 1-(6-(6-(Difluoromethyl)imidazo[1,2-b]pyridazin-3-yl)pyrimidin-4-yl)piperidine-3-carboxamide] | 6.00 to 8.00 | 5.30 to 6.30
O=S(=O)(NCC1CCCN(c2cc(-c3cnc4ccc(C(F)F)nn34)ncn2)C1)C(F)(F)F (stereo not drawn) [II-379, N-((1-(6-(6-(Difluoromethyl)imidazo[1,2-b]pyridazin-3-yl)pyrimidin-4-yl)piperidin-3-yl)methyl)-1,1,1-trifluoromethanesulfonamide] | 6.00 to 8.00 | 5.30 to 6.30
FC(F)c1ccc2ncc(-c3cc(N4CCCCC4C(F)(F)F)ncn3)n2n1 (stereo not drawn) [II-380, 6-(Difluoromethyl)-3-(6-(2-(trifluoromethyl)piperidin-1-yl)pyrimidin-4-yl)imidazo[1,2-b]pyridazine] | < 6.00 | < 5.30
CC1C(CNS(C)(=O)=O)CN(c2cc(-c3cnc4ccc(C(F)F)nn34)ncn2)CC1(F)F (stereo not drawn) [II-381, N-((1-(6-(6-(Difluoromethyl)imidazo[1,2-b]pyridazin-3-yl)pyrimidin-4-yl)-5,5-difluoro-4-methylpiperidin-3-yl)methyl)methanesulfonamide] | > 8.00 | > 6.30
CC1C(CNS(C)(=O)=O)CN(c2cc(-c3cnc4ccc(C(F)F)nn34)ncn2)CC1(F)F (stereo not drawn) [II-382, N-((1-(6-(6-(Difluoromethyl)imidazo[1,2-b]pyridazin-3-yl)pyrimidin-4-yl)-5,5-difluoro-4-methylpiperidin-3-yl)methyl)methanesulfonamide] | 6.00 to 8.00 | 5.30 to 6.30
CS(=O)(=O)NCC1CN(c2cc(-c3cnc4ccc(C(F)F)nn34)ncn2)CC2(CC2)O1 (stereo not drawn) [II-383, N-((7-(6-(6-(Difluoromethyl)imidazo[1,2-b]pyridazin-3-yl)pyrimidin-4-yl)-4-oxa-7-azaspiro[2.5]octan-5-yl)methyl)methanesulfonamide] | 6.00 to 8.00 | 5.30 to 6.30
CS(=O)(=O)NCC1CN(c2cc(-c3cnc4ccc(C(F)F)nn34)ncn2)CC2(CC2)O1 (stereo not drawn) [II-384, N-((7-(6-(6-(Difluoromethyl)imidazo[1,2-b]pyridazin-3-yl)pyrimidin-4-yl)-4-oxa-7-azaspiro[2.5]octan-5-yl)methyl)methanesulfonamide] | > 8.00 | > 6.30
CNS(=O)(=O)NCC1CCCN(c2cc(-c3cnc4ccc(C(F)F)nn34)ncn2)C1 (stereo not drawn) [II-385, 1-((1-(6-(6-(Difluoromethyl)imidazo[1,2-b]pyridazin-3-yl)pyrimidin-4-yl)piperidin-3-yl)methyl)-3-methylsulfuric diamide] | > 8.00 | > 6.30
